Experimental data from patent US20200289430A1, “Antibacterial Treatments Using Cannabinoids” (priority 2017, published 2020).
Values after ≈ are worked out from the molar mass of the structure shown. Structures can show the parent of a compound that is named as a salt. Where two headings read alike, the source gives them in different places.

Experiments:
Assay type in all cases: cell-based
Propionibacterium acnes = experiment: Minimum Inhibitory Concentration (MIC), Macrodilution Broth Method, Propionibacterium acnes ATCC strains; conditions: Cutibacterium acnes
From the text: (§1) This study, a Minimum Inhibitory Concentration (MIC), will be performed based upon the Macrodilution Broth Method outlined in CLSJ Document M07-A 10, Methods for Dilution Antimicrobial Susceptibility Tests for Bacteria that Gro111 Aerobically, Tenth Edition, and CLSI Document MI I-A8, Methods for Antimicrobial Susceptibility Testing of Anaerobic Bacteria, Eighth Edition.
(§2) The Test Material will be evaluated versus at total of 17 different microorganism strains: 7 strains of Methicillin resistant Staphylococcus aureus, 6 stains of Propionibacterium acnes, 2 strains of Erythromycin resistant Propionibacterium acnes, and 2 strains of Tetracycline resistant Propionibacterium acnes. Positive Control Material #1 will be evaluated versus 2 strains of Erythromycin resistant Propionibacterium acnes. Positive Control Material #2 will be evaluated versus 2 strains of Tetracycline resistant Propionibacterium acnes.
(§3) A suspension of each challenge strain will be prepared and exposed to each of 10 doubling dilutions of the test material or positive control materials prepared in the appropriate nutrient broth (reference Table I). Following incubation, the Minimum Inhibitory Concentration (MIC) of the test material and positive control materials will be determined visually and documented.
(§4) 2 to 6 days prior to testing, sterile tubes containing Reinforced Clostridial Medium (RCM) will be inoculated from lyophilized vials or cryogenic stock cultures containing these species. The broth cultures will be incubated anaerobically at 35±2° C. for 1 to 3 days, or until sufficient growth is observed.
(§5) The purity of each broth culture will be verified by preparing duplicate isolation streaks on Chocolate Agar with Enrichment (CAE), and incubating one plate aerobically and one anaerobically at 35±2° C.
(§6) Following incubation, initial suspensions containing approximately 10^8 CFU/mL will be prepared for each species by centrifuging the broth culture tubes, combining the resulting pellets, and resuspending them in additional broth.
(§7) Final Challenge Suspensions containing approximately 1×10^6 CFU/mL of each microorganism strain will be prepared by transferring aliquots of the 10^8 CFU/mL initial suspensions into separate containers containing a volume of the appropriate broth media sufficient to the needs of testing.
(§8) On each day of testing, the Test Material will be diluted (v/v) using the appropriate broth media to produce an intermediate solution containing […] of Cannabidiol.
(§9) A series of 1:2 (v/v) dilutions of intermediate Test Material solution will be prepared using the appropriate broth media, to produce active concentrations of 100 μg/mL, 50 μg/mL, 25 μg/mL, 12.5 μg/mL, 6.25 μg/mL, 3.125 μg/mL, 1.562 μg/mL, 0.781 μg/mL, 0.390 μg/mL, and 0.195 μg/mL.
(§10) A 1.0 mL aliquot of the intermediate Test Material solution (100 μg/mL), and 1.0 mL aliquots of each of the 9 test material dilutions prepared will be transferred to separate sterile test tubes. For each challenge microorganism, three sets of test tubes will be prepared for the Test Material.
(§11) A 1.0 mL aliquot of a challenge suspension containing approximately 1×10^6 CFU/mL will be dispensed into each dilution tube in each series.
(§12) Following inoculation, final active Test Material concentrations of 50 μg/mL, 25 μg/mL, 12.5 μg/mL, 6.25 μg/mL, 3.125 ug/ml, 1.562 μg/mL, 0.781 μg/mL, 0.390 ug/ml, 0.195 μg/mL and 0.0976 μg/mL will be produced.
(§13) Each dilution tube will contain approximately 5×10^5 CFU/mL of the challenge microorganism.
Positive Control Tubes (Growth Controls) containing a 1.0 mL aliquot of the appropriate broth media, and a 1.0 mL aliquot of challenge suspension will be prepared using each microorganism strain.
Negative Control Tubes (Sterility Controls; no microbial inoculation) of each broth media will be prepared.
Following incubation, the tubes will be examined for growth of the challenge microorganism, as determined visually on the basis of turbidity.

[1] = system: Propionibacterium acnes Erythromycin Resistant Clinical Isolates; experiment: MIC, Macrodilution Broth Method, Erythromycin resistant P. acnes clinical isolates; conditions: for MIC: Cutibacterium acnes, read-out: Minimum Inhibitory Concentration (MIC); for Minimum Inhibitory Concentration (MIC): Erythromycin resistant P. acnes clinical isolate BSLI #281014Pa6
From the text: as §1, §2, §3, §4, §5, §6, §7, §8
(§14) A series of 1:2 (v/v) dilutions of intermediate Test Material solution will be prepared using the appropriate broth media, to produce active concentrations of 100 μg/mL, 50 μg/mL, 25 μg/mL, 12.5 μg/mL, 6.25 μg/mL, 3.125 μg/mL, 1.562 μg/mL, 0.781 μg/mL, 0.390 μg/mL, and 0.195 μg/mL. […]

[2] = system: Propionibacterium acnes Tetracycline Resistant Clinical Isolates; experiment: microbe, parasite or virus in culture; conditions: Cutibacterium acnes
From the text: as §1, §2, §3, §4, §5, §6, §7, §8, §14

[3] = system: Methicillin resistant Staphylococcus aureus; experiment: microbe, parasite or virus in culture
From the text: as §1, §2, §3
2 to 4 days prior to testing, inocula from lyophilized vials or cryogenic stock cultures containing each species will be suspended in 0.9% Sodium Chloride Irrigation, USP (SCI), inoculated onto the surface of Tryptic Soy Agar (TSA) contained in Petri plates, and incubated at 35±2° C. for 24 to 48 hours, or until sufficient growth is observed.
24 to 48 hours prior to testing, growth from the agar plates previously prepared will be suspended in SCI.
The purity of each suspension will be verified by preparing isolation streaks of each culture on TSA. Aliquots of each suspension will then be spread-plated onto the surface of additional plates of TSA and incubated at 35±2° C. until sufficient growth is observed. This will produce lawns of the bacteria on the surface of the agar plates, and growth from these will be used to prepare the challenge suspensions.
Immediately prior to testing, an initial suspension of each species will be prepared in SCI by suspending the microorganisms from the solid media to achieve initial suspension concentrations of approximately 10^8 CFU/mL. The suspensions may be centrifuged, if deemed necessary, to achieve the desired concentration.
as §7, §8, §9, §10, §11, §12, §13

[4] = read-out: Minimum Inhibitory Concentration (MIC), Tetracycline resistant P. acnes clinical isolate BSLI #281014Pa2
[5] = read-out: Minimum Inhibitory Concentration (MIC), Tetracycline resistant P. acnes clinical isolate BSLI #281014Pa4

Compound	MIC (Propionibacterium acnes; ATCC6919, Propionibacterium acnes ATCC #6919, anaerobic, RCM broth, read-out: Minimum Inhibitory Concentration (MIC)) [µg/mL]	MIC (Propionibacterium acnes; ATCC6922, Propionibacterium acnes ATCC #6922, anaerobic, RCM broth, read-out: Minimum Inhibitory Concentration (MIC)) [µg/mL]	MIC (Propionibacterium acnes; ATCC6923, Propionibacterium acnes ATCC #6923, anaerobic, RCM broth, read-out: Minimum Inhibitory Concentration (MIC)) [µg/mL]	MIC (Propionibacterium acnes; ATCC11827, Propionibacterium acnes ATCC #11827, anaerobic, RCM broth, read-out: Minimum Inhibitory Concentration (MIC)) [µg/mL]	MIC (Propionibacterium acnes; ATCC11828, Propionibacterium acnes ATCC #11828, anaerobic, RCM broth, read-out: Minimum Inhibitory Concentration (MIC)) [µg/mL]	MIC (Propionibacterium acnes; ATCC51277, Propionibacterium acnes ATCC #51277, anaerobic, RCM broth, read-out: Minimum Inhibitory Concentration (MIC)) [µg/mL]	MIC (Propionibacterium acnes; all P. acnes strains tested, including strains resistant to other antibiotics, read-out: MIC against Propionibacterium acnes (summary over all strains)) [µg/mL]	MIC [1] [µg/mL]	Minimum Inhibitory Concentration (MIC) [1] [µg/mL]	MIC [2, 4] [µg/mL]	MIC [2, 5] [µg/mL]	MIC ([3]; ATCC33592, read-out: Minimum Inhibitory Concentration (MIC)) [µg/mL]	MIC ([3]; ATCCBAA41, read-out: Minimum Inhibitory Concentration (MIC)) [µg/mL]	MIC ([3]; ATCCBAA42, read-out: Minimum Inhibitory Concentration (MIC)) [µg/mL]	MIC ([3]; ATCCBAA44, read-out: Minimum Inhibitory Concentration (MIC)) [µg/mL]	MIC ([3]; ATCCBAA1683, read-out: Minimum Inhibitory Concentration (MIC)) [µg/mL]	MIC ([3]; ATCCBAA2094, read-out: Minimum Inhibitory Concentration (MIC)) [µg/mL]	MIC ([3]; ATCCBAA2313, read-out: Minimum Inhibitory Concentration (MIC)) [µg/mL]	MIC ([3]; read-out: MIC against Staphylococcus aureus (summary over all strains)) [µg/mL]
C=C(C)[C@@H]1CCC(C)=C[C@H]1c1c(O)cc(CCCCC)cc1O [Cannabidiol]	3.12 (≈ 9.94 µM)	6.25 (≈ 19.9 µM)	6.25 (≈ 19.9 µM)	3.12 (≈ 9.94 µM)	6.25 (≈ 19.9 µM)	6.25 (≈ 19.9 µM)	3.12 to 6.25 (≈ 9.94 to 19.9 µM)	6.25 (≈ 19.9 µM)	6.25	3.12 (≈ 9.94 µM)	6.25 (≈ 19.9 µM)	1.56 (≈ 4.97 µM)	1.56 (≈ 4.97 µM)	1.56 (≈ 4.97 µM)	1.56 (≈ 4.97 µM)	1.56 (≈ 4.97 µM)	1.56 (≈ 4.97 µM)	1.56 (≈ 4.97 µM)	~1.56 (≈ 4.97 µM)
CC[C@H]1OC(=O)[C@H](C)[C@@H](O[C@H]2C[C@@](C)(OC)[C@@H](O)[C@H](C)O2)[C@H](C)[C@@H](O[C@@H]2O[C@H](C)C[C@H](N(C)C)[C@H]2O)[C@](C)(O)C[C@@H](C)C(=O)[C@H](C)[C@@H](O)[C@]1(C)O [Erythromycin, reference compound]								2050 (≈ 2790 µM)	2048										
CN(C)[C@@H]1C(O)=C(C(N)=O)C(=O)[C@@]2(O)C(O)=C3C(=O)c4c(O)cccc4[C@@](C)(O)[C@H]3C[C@@H]12 [Tetracycline HCl, reference compound]										64	128								
